Patent US20110173718A1, “HERBICIDE TOLERANT PLANTS” (SYNGENTA CROP PROTECTION, INC., priority 2008, published 2011)
“And” between values parts separate entries of the source, which are not always exact repeats. Equal values may be shown once.

Experiments:
Format in all cases: in vivo
weeds [1] = test: Glasshouse weed control, HST inhibitors alone and with A22, pre-emergence; settings: 14 DAT
Procedure: (§1) In a further test, the results of which are depicted in tables 18 and 19, weed seeds are planted out in trays containing 50% peat/50% John Innes no. 3 soil and grown in the glass house at 24-27 C day; 18-21 C night and approximately a 15 h photoperiod. Humidity is ˜65% and light levels at bench level are up to 2 mmol/m^2. Again all spray chemicals are dissolved in 0.2% X77 surfactant and sprayed from a boom on a track sprayer moving at 2 mph with the nozzle set about 2 inches above the plant tops. The spray volume is […]. Sprays are carried out both pre-emergence and post-emergence over small plants at about 7-12 d post-emergence. Plants are assessed at 14 DAT with herbicidal damage scored on a scale from 0 to 100%. The HPPD inhibiting herbicide is compound A22 (4-hydroxy-3-[[2-(2-methoxyethoxy)methyl]-6-(trifluoromethyl)-3-pyridinylicarbonyl]-bicyclo[3.2.1]oct-3-en-2-one) which is sprayed at 2 g/ha both alone and in mixture with various HST herbicides. Results and spray rates are depicted in Tables 18 and 19. Again the Colby formula has been used to calculate synergy scores observed following treatment with the mixture based on the results obtained with the single components alone. Positive synergy is observed between the HPPD herbicide and a wide variety of HST inhibitor herbicides applied both pre and postemergence across a variety of weeds.

weeds [2] = test: Glasshouse weed control, HST inhibitors alone and with A22, post-emergence; settings: 14 DAT, single replicate
Procedure: as §1

[3] = test system: wild-type (WT) Samsun tobacco; test: Glasshouse spray test, wild-type tobacco; settings: Norflurazon, 150 g/ha; 14 DAT; WT control, reps
Procedure: Rooted transgenic T0 plantlets are transferred from agar and potted into 50% peat, 50% John Innes soil no 3 or, for example, MetroMix® 380 soil (Sun Gro Horticulture, Bellevue, Wash.) with slow-release fertilizer in 3 inch round or 4 inch square pots and left regularly watered to establish for 8-12 d in the glass house. Glass house conditions are about 24-27° C. day; 18-21° C. night and approximately a 14 h (or longer in UK summer) photoperiod. Humidity is ˜65% and light levels up to 2000 μmol/m^2 at bench level. Once new tissue emerges and plants they have reached the 2-4 leaf stage some of the clones from each event are sprayed with test chemicals dissolved in water with 0.2-0.25% X-77 surfactant and sprayed from a boom on a suitable track sprayer moving at 2 mph in a DeVries spray chamber with the nozzle about 2 inches from the plant tops. Spray volume is suitably 25 gallons per acre or, for example, […].
Test chemicals are, for example, compound 2.3 at 500 g/ha. At the same time that transgenic plants are sprayed so too are w/t Samsun tobacco plants grown from seed as well as non-transgenic plants regenerated from tissue culture and non-transgenic tissue culture escapes. Damage is assessed versus unsprayed control plants of like size and development.
6 Seed from w/t Samsun tobacco and 8 T1 seed from events B8 and G9 are also planted out in 3 inch pots, grown on for 7 to 12 d and then, as described in the foregoing examples, the plantlets spray tested for resistance to various chemicals and assessed at 14 DAT. Chemicals are formulated in 0.2% X77 and sprayed at a spray volume of 200 l/ha.
Seed of wild-type tobacco plants, C2 tobacco plants and of the T1 progeny of a further Arabidopsis-HST expressing tobacco line, D2 were planted out in 3 inch pots, grown on, sprayed with compounds 1.1, 2.30 and 3.6 at the rates shown in table 5. Percent damage scores were assessed at 7 DAT. Aside from the presumptive non-transgenic segregants the D2 line containing the Arabidopis HST expression construct offered the highest level of tolerance to the two HST herbicides with the Psuedomonas HPPD, C2 line, offering only marginal tolerance under the conditions of this test.
Single copy events amongst the T1 plant lines are identified by their 3:1 segregation ratio (wrt kanamycin and or herbicide) and by quantitative RT-PCR. Seed from the thus selected T1 tobacco (var Samsun) lines are sown in 3 inch diameter pots containing 50% peat, 50% John Innes soil no 3. After growth to the 3 leaf stage, plants are sprayed, as described above, in order to test for herbicide tolerance relative to like-treated non-transgenic tobacco plants.
Control tobacco plants and transgenic T1 plants expressing either the Pseudomonas or the wheat HPPD gene are sprayed at 37, 111, 333 and 1000 g/ha rates of HST inhibitors and, for example, compound 2.3.
Plants are assessed and scored for % damage at 16 DAT.

Structure (SMILES): CC(C)C(=O)Oc1c(-c2c(Cl)cccc2C(F)(F)F)c(=O)n(CC(F)F)c2nccnc12 [Compound 2.28]
- BRAPL Obs, % control score (weeds [1]; HST inhibitor rate 15.625 g/ha): 0%
- BRAPL Obs, % control score (weeds [1]; HST inhibitor rate 62.5 g/ha): 2%
- BRAPL Obs, % control score (weeds [1]; HST inhibitor rate 250 g/ha): 50%
- DIGSA Obs, % control score (weeds [1]; HST inhibitor rate 15.625 g/ha): 0%
- DIGSA Obs, % control score (weeds [1]; HST inhibitor rate 62.5 g/ha): 0%
- DIGSA Obs, % control score (weeds [1]; HST inhibitor rate 250 g/ha): 30%
- ECHCG Obs, % control score (weeds [1]; HST inhibitor rate 15.625 g/ha): 0%
- ECHCG Obs, % control score (weeds [1]; HST inhibitor rate 62.5 g/ha): 50%
- ECHCG Obs, % control score (weeds [1]; HST inhibitor rate 250 g/ha): 80%
- PANMI Obs, % control score (weeds [1]; HST inhibitor rate 15.625 g/ha): 0%
- PANMI Obs, % control score (weeds [1]; HST inhibitor rate 62.5 g/ha): 0%
- PANMI Obs, % control score (weeds [1]; HST inhibitor rate 250 g/ha): 60%
- SETFA Obs, % control score (weeds [1]; HST inhibitor rate 15.625 g/ha): 0%
- SETFA Obs, % control score (weeds [1]; HST inhibitor rate 62.5 g/ha): 25%
- SETFA Obs, % control score (weeds [1]; HST inhibitor rate 250 g/ha): 60%
- SIDSP Obs, % control score (weeds [1]; HST inhibitor rate 15.625 g/ha): 0%
- SIDSP Obs, % control score (weeds [1]; HST inhibitor rate 62.5 g/ha): 0%
- SIDSP Obs, % control score (weeds [1]; HST inhibitor rate 250 g/ha): 10%
- % control score, Obs (weeds [2]; BRAPL, 15.625 g/ha alone): 5%
- % control score, Obs (weeds [2]; BRAPL, 62.5 g/ha alone): 50%
- % control score, Obs (weeds [2]; BRAPL, 250 g/ha alone): 75%
- % control score, Obs (weeds [2]; DIGSA, 15.625 g/ha alone): 10%
- % control score, Obs (weeds [2]; DIGSA, 62.5 g/ha alone): 50%
- % control score, Obs (weeds [2]; DIGSA, 250 g/ha alone): 70%
- % control score, Obs (weeds [2]; ECHCG, 15.625 g/ha alone): 2%
- % control score, Obs (weeds [2]; ECHCG, 62.5 g/ha alone): 40%
- % control score, Obs (weeds [2]; ECHCG, 250 g/ha alone): 70%
- % control score, Obs (weeds [2]; PANMI, 15.625 g/ha alone): 1%
- % control score, Obs (weeds [2]; PANMI, 62.5 g/ha alone): 35%
- % control score, Obs (weeds [2]; PANMI, 250 g/ha alone): 70%
- % control score, Obs (weeds [2]; SETFA, 15.625 g/ha alone): 2%
- % control score, Obs (weeds [2]; SETFA, 62.5 g/ha alone): 50%
- % control score, Obs (weeds [2]; SETFA, 250 g/ha alone): 80%
- % control score, Obs (weeds [2]; SIDSP, 15.625 g/ha alone): 15%
- % control score, Obs (weeds [2]; SIDSP, 62.5 g/ha alone): 40%
- % control score, Obs (weeds [2]; SIDSP, 250 g/ha alone): 50%

Structure (SMILES): CNc1cnn(-c2cccc(C(F)(F)F)c2)c(=O)c1Cl [Norflurazon, reference compound]
- herbicide % damage [3]: 20% and 15% and 10%

Structure (SMILES): CC(C)(C)C(=O)Oc1c(-c2c(F)ccc(Cl)c2Cl)c(=O)n(CC(F)F)c2nccnc12 [Compound 2.25]
- BRAPL Obs, % control score (weeds [1]; HST inhibitor rate 15.625 g/ha): 0%
- BRAPL Obs, % control score (weeds [1]; HST inhibitor rate 62.5 g/ha): 2%
- BRAPL Obs, % control score (weeds [1]; HST inhibitor rate 250 g/ha): 20%
- DIGSA Obs, % control score (weeds [1]; HST inhibitor rate 15.625 g/ha): 0%
- DIGSA Obs, % control score (weeds [1]; HST inhibitor rate 62.5 g/ha): 0%
- DIGSA Obs, % control score (weeds [1]; HST inhibitor rate 250 g/ha): 5%
- ECHCG Obs, % control score (weeds [1]; HST inhibitor rate 15.625 g/ha): 0%
- ECHCG Obs, % control score (weeds [1]; HST inhibitor rate 62.5 g/ha): 0%
- ECHCG Obs, % control score (weeds [1]; HST inhibitor rate 250 g/ha): 30%
- PANMI Obs, % control score (weeds [1]; HST inhibitor rate 15.625 g/ha): 0%
- PANMI Obs, % control score (weeds [1]; HST inhibitor rate 62.5 g/ha): 0%
- PANMI Obs, % control score (weeds [1]; HST inhibitor rate 250 g/ha): 10%
- SETFA Obs, % control score (weeds [1]; HST inhibitor rate 15.625 g/ha): 0%
- SETFA Obs, % control score (weeds [1]; HST inhibitor rate 62.5 g/ha): 1%
- SETFA Obs, % control score (weeds [1]; HST inhibitor rate 250 g/ha): 15%
- SIDSP Obs, % control score (weeds [1]; HST inhibitor rate 15.625 g/ha): 0%
- SIDSP Obs, % control score (weeds [1]; HST inhibitor rate 62.5 g/ha): 1%
- SIDSP Obs, % control score (weeds [1]; HST inhibitor rate 250 g/ha): 2%
- % control score, Obs (weeds [2]; BRAPL, 15.625 g/ha alone): 15%
- % control score, Obs (weeds [2]; BRAPL, 62.5 g/ha alone): 30%
- % control score, Obs (weeds [2]; BRAPL, 250 g/ha alone): 60%
- % control score, Obs (weeds [2]; DIGSA, 15.625 g/ha alone): 0%
- % control score, Obs (weeds [2]; DIGSA, 62.5 g/ha alone): 2%
- % control score, Obs (weeds [2]; DIGSA, 250 g/ha alone): 10%
- % control score, Obs (weeds [2]; ECHCG, 15.625 g/ha alone): 1%
- % control score, Obs (weeds [2]; ECHCG, 62.5 g/ha alone): 2%
- % control score, Obs (weeds [2]; ECHCG, 250 g/ha alone): 30%
- % control score, Obs (weeds [2]; PANMI, 15.625 g/ha alone): 2%
- % control score, Obs (weeds [2]; PANMI, 62.5 g/ha alone): 10%
- % control score, Obs (weeds [2]; PANMI, 250 g/ha alone): 55%
- % control score, Obs (weeds [2]; SETFA, 15.625 g/ha alone): 1%
- % control score, Obs (weeds [2]; SETFA, 62.5 g/ha alone): 5%
- % control score, Obs (weeds [2]; SETFA, 250 g/ha alone): 40%
- % control score, Obs (weeds [2]; SIDSP, 15.625 g/ha alone): 10%
- % control score, Obs (weeds [2]; SIDSP, 62.5 g/ha alone): 30%
- % control score, Obs (weeds [2]; SIDSP, 250 g/ha alone): 40%

Structure (SMILES): COCCOCc1nc(C(F)(F)F)ccc1C(=O)C1=C(O)C2CCC(C2)C1=O (stereo not shown) [Compound A22, 4-hydroxy-3-[[2-(2-methoxyethoxy)methyl]-6-(trifluoromethyl)-3-pyridinylicarbonyl]-bicyclo[3.2.1]oct-3-en-2-one, reference compound]
- BRAPL Obs, % control score (weeds [1]; rate 2 g/ha): 0%
- DIGSA Obs, % control score (weeds [1]; rate 2 g/ha): 2% and 0%
- ECHCG Obs, % control score (weeds [1]; rate 2 g/ha): 5% and 0%
- PANMI Obs, % control score (weeds [1]; rate 2 g/ha): 0%
- SETFA Obs, % control score (weeds [1]; rate 2 g/ha): 5% and 0%
- SIDSP Obs, % control score (weeds [1]; rate 2 g/ha): 2% and 0%
- % control score, Obs (weeds [2]; BRAPL, A22 alone 2 g/ha): 2%
- % control score, Obs (weeds [2]; DIGSA, A22 alone 2 g/ha): 5%
- % control score, Obs (weeds [2]; ECHCG, A22 alone 2 g/ha): 30%
- % control score, Obs (weeds [2]; PANMI, A22 alone 2 g/ha): 50% and 55%
- % control score, Obs (weeds [2]; SETFA, A22 alone 2 g/ha): 10% and 2%
- % control score, Obs (weeds [2]; SIDSP, A22 alone 2 g/ha): 20% and 15%
